Experimental data published in patent US8518677B2, “Microbial bioreaction process” (Evolva Sa, priority 2007, dated 2013).
Read-outs that look alike come from different tables or passages of the source.

Key:
[1] = Stilbenoid levels in batch culture of non-evolved FS09229 with nonyl-acetate vs control (HPLC); design: species or system S. cerevisiae; settings: FS09229-solvent; for Upper phase (0.1 L) % total: 100 ml nonyl-acetate; for Lower phase (1 L) % total: aqueous phase, nonyl-acetate
Procedure: (§1) A Phenomenex (Torrance, Calif., USA) Luna 3 micrometer C18 (100×2.00 mm) column was used at 60° C. As mobile phase a gradient of acetonitrile and milliq water (both containing 50 ppm trifluoroacetic acid) was used at a flow of 0.4 ml/min. The gradient profile was linear from 15% acetonitrile to 100% acetonitrile over 20 min.
The non-evolved FS09229 strain described in previous examples was grown in the presence of nonyl-acetate. […] The stirrer speed was instantly set at 800 rpm. […] The cultivation will be referred to as FS09229-solvent. […] The cultivation will be referred to as FS09229-control.
(§2) For the determination of stilbenoids, an aliquot of 25 ml of cell broth was collected, and phase separation was initiated by centrifugation at 3500 g for 5 minutes. Both the upper nonylacetate phase and the lower aqueous medium phase were collected separately with a pipette and directly analyzed for their content of stilbenoids and intermediates by HPLC.

[2] = Stilbenoid levels in two-phase batch culture of evolved PALCPR (PALCPR-evolved-I) with octylacetate (HPLC); design: species or system S. cerevisiae; settings: for Upper phase (0.1 L) % total: 100 ml octylacetate on 1 L medium; for Lower phase (1 L) % total: aqueous phase, octylacetate
Procedure: as §1
(§3) For that, cells of the culture described in the previous example were harvested during mid-exponential-phase and stored at −80° C. in 15% glycerol and subsequently a fermentor, containing the same medium as described in the previous example with 10 g/l glucose and 100 g/l galactose, was then inoculated with cells of said PALCPR-solvent culture. The cells were allowed to fully consume the glucose at a stirring speed of 1000 rpm with an average dissolved oxygen content of above 70% of saturated air. At the onset of galactose consumption, the stirring rate was turned down to 300 rpm, after which slowly 100 ml of octylacetate was added.
as §2, with “octylacetate” for “nonylacetate”, “aquous” for “aqueous”, “pipet” for “pipette”

[3] = Stilbenoid levels in two-phase batch culture of PALCPR-evolved-II with octylacetate (HPLC); design: species or system S. cerevisiae; settings: for Upper phase (0.1 L) % total: 100 ml octylacetate from start; for Lower phase (1 L) % total: aqueous phase, octylacetate
Procedure: as §1
However, the medium now only contained 100 g/l galactose and did contain 100 ml of octylacetate from the beginning of the fermentation. In addition, the stirrer speed was instantly set at 800 rpm. […] The strain is referred to as PALCPR-evolved-II.
as §2, with “octylacetate” for “nonylacetate”, “aquous” for “aqueous”, “pipet” for “pipette”

[4] = Stilbenoid levels in batch culture of PALCPR-evolved-III with nonyl-acetate vs control (HPLC); design: species or system S. cerevisiae; settings: for Upper phase (0.1 L) % total: PALCPR-solvent (PALCPR-evolved-III), 100 ml nonyl-acetate
Procedure: as §1
The stirrer speed was instantly set at 800 rpm. […] The cultivation will be referred to as PALCPR-solvent. […] The cultivation will be referred to as PALCPR-control.
as §2

[5] = Stilbenoid levels in batch culture of solvent-adapted PALCPR, dodecane/octylacetate two-phase vs control (HPLC); design: species or system S. cerevisiae; settings: for Upper phase (0.3 L) % total: 200 ml dodecane + 100 ml octylacetate on 1 L medium; for Lower phase (1 L) % total: aqueous medium phase, dodecane/octylacetate
Procedure: as §1

[6] = Stilbenoid levels in two-phase batch culture of PALCPR-evolved-III with octylacetate (HPLC); design: species or system S. cerevisiae; settings: for Upper phase (0.1 L) % total: 100 ml octylacetate from start; for Lower phase (1 L) % total: aqueous phase, octylacetate
Procedure: as §1
The stirrer speed was instantly set at 800 rpm. […] The strain is referred to as PALCPR-evolved-III.
as §2, with “octylacetate” for “nonylacetate”, “aquous” for “aqueous”, “pipet” for “pipette”

[7] = partition coefficient between water and octanol; cited from earlier work
[8] = test system: Escherichia coli strain FS06112; assay: Glycerol consumption of FS06112 shakeflask cultures in the presence of extraction solvent; assay type: cell-based
Procedure: (§4) A glycerol stock of strain FS06112 was used to inoculate 500 ml baffled shake flasks that contained 100 ml modified M9 medium consisting of 4.5 g/l glycerol, 1.5 g/l yeast extract, 3 g/l K2HPO4, 6.8 g/l Na2HPO4, 0.5 g/l NaCl, 1 g/l NH4C, 50 μg/ml ampicillin and 50 μg/ml kanamycin; the initial pH was set at 7.0. The shakeflasks were incubated at ambient temperature, and were mixed with a magnetic stirring bar at approximately 150 rpm. After 5 hours, isopropyl β-thiogalactopyranoside (IPTG) was added at a final concentration of 4 mM, as an inducer of the T7 promoter that was in front of each of the three genes TAL, 4CL and VST. After one hour an aliquot of 10 ml of the solvent octyl acetate was added to one shakeflask that is now referred to as FS06112-solvent; the shakeflask culture without solvent will be referred to as FS06112-control.
as §4, with “β-thiogalactopyranoside(IPTG)” for “β-thiogalactopyranoside (IPTG)”, “methyl decanoate” for “octyl acetate”
A glycerol stock of strain FS06112 was used to inoculate 500 ml baffled shake flasks that contained 100 ml modified M9 medium consisting of 4.5 g/l glycerol, 1.5 g/l yeast extract, 3 g/l K2HPO4, 6.8 g/l Na2HPO4, 0.5 g/l NaCl, 1 g/l NH4C, 50 μg/ml ampicillin and 50 μg/ml kanamycin; the initial pH was set at 7.0. […]

[9] = test system: S. cerevisiae strain PALCPR; assay: Growth of evolved PALCPR strains in the presence of extraction solvent (CO2 production); assay type: cell-based
Procedure: as §3, with “The cells of the PALCPR-solvent culture described in the previous example were taken as starting point because the presence of the solvent mixture would possibly have already evoked adaptation of cells to solvents. For” for “For”
Galactose consumption indeed commenced again. A small arrest in CO2 production again occurred after 20 hours which, however, recovered after 5 hours, after which the cells grew exponentially with concomitant production of CO2, consumption of galactose within less than 40 hours. Based upon the CO2 production the specific growth rate was estimated to be 0.062 1/h (FIG. 2). The final biomass concentration was 21.6 g/l.
In order to further improve said strain in terms of length of lag-phase and growth rate, a 25 ml aliquot of the exponentional growing PALCPR-evolved-I strain was used to inoculate a fermentor, containing a similar medium as described in the previous example. However, the medium now only contained 100 g/l galactose and did contain 100 ml of octylacetate from the beginning of the fermentation. In addition, the stirrer speed was instantly set at 800 rpm. Upon inoculation of the fermentor, consumption of galactose only commenced after approximately 40 hours, indicated by a slow increase in CO2 signal, a decrease in dissolved oxygen and addition of base. Indeed the cells continued to grow exponentially with concomitant production of CO2, and consumed the galactose within less than 90 hours. Based upon the CO2 production the specific growth rate was estimated to be 0.041 1/h (FIG. 3). The final biomass concentration was 21.5 g/l. The strain is referred to as PALCPR-evolved-II.
Therefore, to further improve said strain in terms of both length of lag-phase and growth rate, a 50 ml aliquot of the exponentional growing PALCPR-evolved-II strain was used to inoculate a fermentor, containing a similar medium as described in the previous example (thus containing 100 g/l galactose 100 ml of octylacetate from the beginning of the fermentation). The stirrer speed was instantly set at 800 rpm. Upon inoculation of the fermentor, consumption of galactose already commenced after less then 20 hours, indicated by a slow increase in CO2 signal, a decrease in dissolved oxygen and addition of base. Indeed the cells further grew exponentially with concomitant production of CO2, and now consumed the galactose within approximately 50 hours. Based upon the CO2 production the specific growth rate was estimated to be 0.091 1/h (FIG. 4). The final biomass concentration was 18.9 g/l. The strain is referred to as PALCPR-evolved-III.
The evolved PALCPR-evolved-III strain described in the previous example was grown in the presence of nonyl-acetate, a similar solvent as octylacetate with one additional carbon atom. A 1 ml aliquot of a glycerol stock that was made from an exponentional growing PALCPR-evolved-III strain was used to inoculate a fermentor, containing a similar medium as described in the previous example, containing only 100 g/l galactose and 100 ml of nonyl-acetate from the beginning of the fermentation. The stirrer speed was instantly set at 800 rpm. Upon inoculation of the fermentor, consumption of galactose only commenced after approximately 70 hours, indicated by a slow increase in CO2 signal, a decrease in dissolved oxygen and addition of base. […]

[10] = PALCPR-evolved-II, 100 ml solvent from start, 800 rpm
[11] = PALCPR-evolved-III, 100 ml solvent from start, 800 rpm, fresh inoculum

SMILES	Upper phase (0.1 L) % total [1] [% total]	Lower phase (1 L) % total [1]	Upper phase (0.1 L) % total [2] [% total]	Lower phase (1 L) % total [2]	Upper phase (0.1 L) % total [3] [% total]	Lower phase (1 L) % total [3]	Upper phase (0.3 L) % total [5] [% total]	Lower phase (1 L) % total [5] [% total]	Upper phase (0.1 L) % total [6] [% total]	Lower phase (1 L) % total [6] [% total]	logP [7]	also measured
O=C(O)C=Cc1ccccc1 [Cinnamic acid, cinnamic acid]	42.2	57.8 % total	52.5	47.5 % total	88.6	11.4 % total	56.9	43.1	71.3	28.7		Upper phase (0.1 L) % total ([1]; listed as cinnamic acid): 42 % total; Upper phase (0.1 L) % total [4]: 29.6 % total; Upper phase (0.1 L) % total ([4]; listed as cinnamic acid): 25 % total; Lower phase (1 L) % total ([4]; PALCPR-solvent, aqueous phase, nonyl-acetate): 70.4 % total
O=C(O)/C=C/c1ccc(O)cc1 [Coumaric acid, 4-coumaric acid]			18.0	82.0 % total	59.3	40.7 % total			40.0	60.0		
Oc1cc(O)cc(/C=C/c2ccccc2)c1 [Pinosylvin, pinosylvin]	100	0.0; 0.0 % total	100	0; 0 % total	100	0; 0 % total	95.2	4.8	90.3	9.7		Upper phase (0.3 L) % total ([5]; listed as pinosylvin): 95 % total; Upper phase (0.1 L) % total ([6]; listed as pinosylvin): 100 % total
CCCCCCCCCC(=O)OC [methyl decanoate]											4.3	time in which the glycerol was consumed [8]: ≤ 48 h
CCCCCCCCOC(C)=O [n-octyl acetate]											3.7	lag-phase until galactose consumption commenced [9, 10]: approximately 40 hours; specific growth rate [9, 10]: 0.041 h⁻¹; lag-phase until galactose consumption commenced [9, 11]: < 20 h; specific growth rate [9, 11]: 0.091 h⁻¹; time until cells started to grow after solvent addition (lag-phase) ([9]; cells from PALCPR-solvent culture (PALCPR-evolved-I), 100 ml solvent added to 1 L): approximately 170 hours; specific growth rate ([9]; cells from PALCPR-solvent culture (PALCPR-evolved-I), 100 ml solvent added to 1 L at onset of galactose consumption): 0.062 h⁻¹; time in which 2.5 g/l of glycerol was consumed [8]: ≤ 24 h
CCCCCCCCCC(C)=O [undecanone]												time in which the glycerol was consumed ([8]; FS06112-solvent, 10 ml solvent on 100 ml medium, control 30 hours): ≤ 48 h
